The structures appear in SMILES notation. Activity calls are given as the source filed them. How the calls were made is not given here.

The EC50 is the concentration at which the effect is half-maximal.

This assay has as its system Leishmania major promastigote growth inhibition. Kind of assay: antileishmanial activity against L. major promastigotes – EC50, dose response (AID 2008).
For `NC(C(=O)O)C1CC(Cl)=NO1` (configuration not stated), the EC50 was 0.177 µM.

Take `COC(=O)C1CN(C#N)N(c2ccc(Cl)cc2)C12c1ccccc1-c1ccccc12` (configuration not stated): the EC50 is 0.0729 µM.

As to `Cc1ccccc1NC1=C/C(=N\S(=O)(=O)c2cccs2)c2ccccc2C1=O`, the EC50 was 0.208 µM.

Turning to `O=C1CC(c2ccccc2Br)c2cc3c(cc2N1)CCC3` (configuration not stated), the EC50 is 0.253 µM.

In the case of `Cc1ccc(NC(=O)N2CCCN(Cc3ccc(F)cc3)C2)cc1C`, the EC50 is 2.94 µM.

For `CCCc1nc2c(=O)n(C)c(=O)nc-2n(C)n1`, the EC50 is 0.214 µM.

With `Cc1ccc2nc(Cl)c3nnnn3c2c1`, the EC50 is 0.765 µM.

Turning to `CC1(C)C(=O)C=C[C@]2(C)[C@H]3CC[C@@]4(C)[C@H](c5ccoc5)OC(=O)[C@H]5O[C@]54[C@]3(C)[C@H](O)C[C@@H]12`, the EC50 was 0.982 µM.

For the compound `NC(=O)c1cn(C2OC(CO)C(O)C2O)c2ncnc(N)c12` (configuration not stated), the EC50 was 0.164 µM.

Take `CCN(CC)C(=S)SSC(=S)N(CC)CC`: the EC50 was 0.263 µM.

Turning to `COc1cc(NC(C)CCCN)c2ncccc2c1Oc1ccccc1` (configuration not stated), the EC50 was less than 0.01 µM.

For the compound `O=C(/C=C/c1ccccc1)CC(O)(c1ccccc1)C(F)(F)F` (configuration not stated), the EC50 is 1.24 µM.

As for `C[C@H]1C[C@@H](C)C(=O)[C@@H]([C@H](O)CC2CC(=O)NC(=O)C2)C1`, the EC50 was 0.001 µM.

On to `COc1ccc(C2=NCC(CSc3nnc(-c4ccc5c(c4)OCO5)o3)S2)cc1` (configuration not stated), for which the EC50 is 0.187 µM.

In the case of `Cc1nc2c(=O)n(C)c(=O)nc-2n(C)n1`, the EC50 is 0.201 µM.

Consider `COc1ccc2c3c(cccc13)NN=C2C`, for which the EC50 was 0.255 µM.

Take `CC(=O)O[C@@H]1C[C@H]2C(C)(C)C(=O)C=C[C@]2(C)[C@H]2CC[C@@]3(C)[C@H](c4ccoc4)OC(=O)[C@H]4O[C@]43[C@@]21C`: the EC50 is 0.731 µM.

As to `Nc1nsc2ccccc12`, the EC50 was 0.391 µM.

For the compound `COC(=O)CNc1nc(-c2ccccc2F)nc2ccccc12`, the EC50 is 0.742 µM.

For `COc1ccc(Cn2c(-c3ccc(OC)cc3)nc3ccccc32)cc1`, the EC50 is 1.11 µM.

For the compound `Cc1ccc2c(c1)-c1cc(C)nn1C(c1ccc3c(c1)OCO3)N2` (configuration not stated), the EC50 was 1.59 µM.

As for `CC12CCC(C(=O)N(CCCN3CCN(Cc4ccccc4)CC3)C1=O)C2(C)C` (configuration not stated), the EC50 was 0.565 µM.

Take `CCCCCCCCCCCCCCCCn1cc[n+](C)c1`: the EC50 is 0.035 µM.

As to `O=C(Cn1cnc([N+](=O)[O-])c1)Nc1cc(Oc2ccc(Cl)cc2Cl)cc([N+](=O)[O-])c1`, the EC50 was 1.51 µM.

With `Cc1nnc(Nc2ccccn2)c2ccccc12`, the EC50 is 0.722 µM.

Take `Cc1c(Cl)sn(-c2ccc(Cl)cc2)c1=O`: the EC50 was 0.545 µM.

As for `CCCc1n[nH]c2c1/C(=N/O)CC(c1ccccc1)C2` (configuration not stated), the EC50 was 1.5 µM.

As to `O=C(NCC(c1cccnc1)N1CCN(c2ccc(F)cc2)CC1)Oc1ccccc1` (configuration not stated), the EC50 is 0.111 µM.

With `O=C1C2CCN(CC2)C1Cc1ccc(OCCOc2ccccc2)cc1` (configuration not stated), the EC50 is 0.272 µM.

Regarding `C=CCn1cccc(/C=C/C(=O)c2ccc(C(C)(C)C)cc2)c1=S`, the EC50 is 1.79 µM.

For the compound `COC(=O)c1ccc(-c2ccc(CNCC(O)c3ccccc3)o2)cc1` (configuration not stated), the EC50 is 0.102 µM.

For `O=[N+]([O-])c1cc(-c2nnc(C34CC5CC(CC(C5)C3)C4)o2)cc([N+](=O)[O-])c1`, the EC50 was 0.115 µM.

On to `COc1ccc2cc3[n+](cc2c1OC)CCc1cc2c(cc1-3)OCO2`, for which the EC50 was 0.375 µM.

As for `NCC12CC3CC(C1)CC(c1ccc(Cl)cc1)(C3)C2`, the EC50 was 0.354 µM.

As for `O=[N+]([O-])c1cc([N+](=O)[O-])c2n[nH]c(-c3ccccc3)c2c1`, the EC50 was 0.402 µM.

As for `COc1cccc2c(=O)c(C/C=C(/C)Cl)c(C)[nH]c12`, the EC50 was 0.107 µM.

Turning to `CCc1ccc(NSc2ccccc2[N+](=O)[O-])cc1`, the EC50 is 0.748 µM.

In the case of `CC[n+]1c(/C=C/N(C)c2ccccc2)sc2ccc(Cl)cc21`, the EC50 was 0.172 µM.

With `CC1(C)Cc2ccccc2-c2nnc(-c3ccc4ccccc4n3)n21`, the EC50 is 1.02 µM.

Regarding `O=C(NC1CCCC1)C(c1ccc(F)cc1)N(Cc1ccc(Cl)cc1)C(=O)CCl` (configuration not stated), the 50% effective concentration (EC50) is 1.76 µM.

In the case of `COCCCN1CCN(c2nnc3n2-c2sc(Br)cc2C(c2ccccc2Cl)=NC3)CC1`, the EC50 is 0.595 µM.

`CCN(CC)c1ccc(NC(=O)CN2CCN(S(=O)(=O)c3cc(Cl)ccc3OC)CC2)cc1`: the EC50 was 3.64 µM.

As for `Cc1ccc(S(=O)(=O)c2ccc(Oc3cccc(C)c3)cc2)cc1`, the 50% effective concentration (EC50) is 0.178 µM.

`CCN(CC)CCOC(c1ccccc1)c1ccc(C)cc1` (configuration not stated): the EC50 was 1.1 µM.

Take `CCOC(=O)C(=Cc1cc(=O)c(OC)co1)C(=O)OCC`: the EC50 is 0.165 µM.

Regarding `CN(C)c1cc(N/N=C/c2ccc(Cl)cc2)nc(N(C)C)n1`, the EC50 was 0.502 µM.

On to `CC1=C(C(=O)Nc2cc(-c3cccc(F)c3)[nH]n2)C2(CCCCC2)OC1=O`, for which the concentration giving a half-maximal response (EC50) was 0.379 µM.

For the compound `Cc1ccccc1-n1ncc2c([N+](=O)[O-])cc([N+](=O)[O-])cc21`, the EC50 is 0.0609 µM.

In the case of `COC(=O)c1ccc2c(c1)C(C)(C)C(/C=C/c1ccc(OC)c(OC)c1OC)=[N+]2C`, the EC50 is 0.00245 µM.

As to `Cc1cccc(-c2cc3c(N=O)c4ccccc4c-3n[nH]2)c1`, the EC50 was 1.54 µM.

With `O=C(CCl)Nc1cccc(-c2cnc3ccccc3n2)c1`, the half-maximal effective concentration (EC50) was 1.11 µM.

`CCOC(=O)c1nnn(-c2nonc2-n2cccc2)c1CCl`: the EC50 was 1.86 µM.

For `CC(C)(C)c1ccc(C(=O)C2CCCN(C3CCC3)C2)cc1` (configuration not stated), the EC50 was 0.0107 µM.

Take `CN(C)CCCN=c1cc(-c2ccccc2)oc2ccc(Cl)cc12`: the EC50 is 1.64 µM.

Consider `O=S(=O)(CCSc1nc2ccccc2s1)c1nc2ccccc2s1`, for which the EC50 was 0.716 µM.

In the case of `COC(=O)c1ccc(COc2ccc(C3C4=C(CCCC4=O)Nc4onc(C)c43)cc2)cc1` (configuration not stated), the EC50 was 1.54 µM.

Regarding `O=C(COc1ccccc1F)NC1CCN(Cc2ccccc2)CC1`, the EC50 was 0.14 µM.

`COc1ccc(/C=C/c2cc[n+](C(=O)Cc3ccccc3)cc2)cc1`: the EC50 was 0.0496 µM.

In the case of `N=C(N)SCc1cn(-c2ccccc2)nc1-c1ccc(Br)cc1`, the EC50 was 1.3 µM.

On to `Cc1ccc2c(c1)c(=O)c1c3n2CCN(C(=O)CCl)C3CC1` (configuration not stated), for which the EC50 is 1.97 µM.

For the compound `O=[N+]([O-])c1ccc(-c2nc(-c3cccs3)c(-c3cccs3)[nH]2)cc1`, the EC50 was 1.97 µM.

Turning to `c1ccc(-c2cc(-c3nnc4sc(-c5ccccn5)nn34)[nH]n2)cc1`, the EC50 is 4.09 µM.

Consider `O=Nc1c2cc(-c3ccccc3)[nH]nc-2c2ccccc12`, for which the EC50 is 2.21 µM.

For the compound `CC(C)(C)c1ccc(-c2ncccc2O)cc1`, the EC50 was 0.299 µM.

For the compound `COc1ccc(C(=O)C(CN2CCOCC2)c2ccccc2)cc1F` (configuration not stated), the EC50 is 2.04 µM.

For `Cc1nn(-c2ccccn2)c2c1C(=O)C(Br)CC2` (configuration not stated), the EC50 was 0.967 µM.

`CCCCCCCCCCCCCCCC[n+]1ccc(/C=N/O)cc1`: the EC50 was 0.00938 µM.

For `[O-][N+]1=c2ccc(Nc3ccccc3)cc2=NC12CCCCC2`, the EC50 is 0.84 µM.

For `Fc1cccc(-c2nnn3c2nc(Cl)c2ccccc23)c1`, the EC50 is 0.49 µM.

On to `Cc1nc([N+](=O)[O-])nn1C12CC3CC(CC(Cl)(C3)C1)C2`, for which the EC50 is 0.856 µM.

In the case of `COc1ccc(S(=O)(=O)Nc2ccc(O)c3ccccc23)cc1`, the EC50 is 0.268 µM.

Turning to `Cc1ccc2nc3cc([N+](=O)[O-])cc([N+](=O)[O-])c3cc2c1`, the EC50 is 0.288 µM.

Take `c1ccc(CNc2nc(-c3cccs3)nc3ccccc23)cc1`: the EC50 is 2.14 µM.

As for `CCOCCN1CCN(c2nnc3n2-c2ccc(Cl)cc2C(c2ccccc2Cl)=NC3)CC1`, the EC50 is 1.17 µM.

With `CC(C)(C)C1CCC2(CC1)Nc1cccc3cccc(c13)N2`, the EC50 was 1.84 µM.

For `O=C1C(=O)c2c(C(=O)c3ccccc3)coc2-c2ccccc21`, the EC50 is 1.25 µM.

As to `Cc1cc(C)c2c(c1)-c1cc(C)nn1C(c1ccc3c(c1)OCO3)N2` (configuration not stated), the EC50 was 1.32 µM.

With `CCOC(=O)N=Nc1c2ccccc2c2nc3no[nH]c3nc12`, the EC50 was 0.784 µM.

For the compound `CCOC(=O)c1c(-c2ccc(F)cc2)csc1NC(=O)CCN1CCOCC1`, the EC50 is 0.176 µM.

Take `CSc1ccc(CNC2CN3CCC2CC3)cc1` (configuration not stated): the EC50 was 1.14 µM.

Consider `C=CCc1ccc(OCCCCCN2CCOCC2)c(OC)c1`, for which the EC50 is 0.97 µM.

As for `Cc1cc(/C=C2\Sc3ccccc3N2C)cc(C)[n+]1CC1CCCO1` (configuration not stated), the EC50 is 0.001 µM.

With `Cc1nn(-c2nc3ccccc3[nH]2)c(N)c1-c1ccc(Cl)cc1`, the EC50 is 1.54 µM.

Take `COC(=O)c1cccc(Cn2c(Cl)c(/C=N/Nc3ccccc3C)sc2=O)c1`: the EC50 was 0.528 µM.

Take `CN(CCN1CCc2ccccc2C1)Cc1nc(Cc2ccccc2F)no1`: the EC50 was 1.4 µM.

With `COc1ccc(NC(=O)/C(Cl)=C(/Cl)S(=O)Cc2ccccc2Cl)cn1` (configuration not stated), the EC50 was 0.241 µM.

For `CCCCS(=O)(=O)/C=C\C=C/S(=O)(=O)CCCC`, the EC50 was 1.52 µM.

Consider `O=C(Nc1ccc(Cl)cn1)c1ccc([N+](=O)[O-])o1`, for which the EC50 is 0.205 µM.

Turning to `C[C@@]1(CO)[C@H](O)CC[C@@]2(C)[C@H]1CC[C@H]1C[C@@H]3C[C@@]12CC[C@]3(O)CO`, the EC50 is 0.121 µM.

As for `CCCCCCCCCCCCCCCC[n+]1cccc(C(=O)N(CC)CC)c1`, the EC50 is 0.625 µM.

For `Cn1cc(CN2CCC(CO)CC2)c(-c2ccc(Oc3ccccc3)cc2)n1`, the EC50 is 0.164 µM.

As for `Nc1nn(-c2ccccc2)c(N)c1N=Nc1ccc2c(c1)OCO2`, the EC50 was 0.846 µM.

As to `Cn1nc(-c2ccc(Cl)cc2)nc2c(=O)n(C)c(=O)nc1-2`, the EC50 was > 5 µM (inactive).

For the compound `CC(C)(C)c1ccc(-n2nc(C#N)c(Cl)cc2=O)cc1`, the EC50 was 0.759 µM.

In the case of `Cn1c(=O)c2nc(-c3ccccc3)oc2c2ccccc21`, the EC50 is 1.87 µM.

For the compound `CCCCCCCCC[n+]1cccc2c3ccccc3ccc21`, the half-maximal effective concentration (EC50) is 0.00245 µM.

In the case of `CC(C)CCN(C)C1CCN(S(=O)(=O)c2cccc(C(F)(F)F)c2)CC1`, the EC50 is 0.00917 µM.

For `Clc1ccc2[nH]cc(-c3nnnn3-c3ccc4ccccc4c3)c2c1`, the EC50 was 1.54 µM.

For `N#Cc1cc(Oc2ccc3ccccc3c2)c(-n2nnc3ccccc32)cc1C#N`, the EC50 was > 5 µM (inactive).

For the compound `CCC(C)(c1nnnn1-c1c(C)cccc1C)N(N=O)c1ccccc1Cl` (configuration not stated), the EC50 is 0.324 µM.

With `COc1cc(CNCc2cccs2)ccc1OCc1ccccc1`, the EC50 was 0.162 µM.

`Nc1cccc2nc3ccccc3cc12`: the EC50 was 0.635 µM.
